Laboratory results taken from paper PMC5671735, “The Effect of CM082, an Oral Tyrosine Kinase Inhibitor, on Experimental Choroidal Neovascularization in Rats” (Journal of Ophthalmology, 2017).
Several values for one entry are separate records, joined by “and”; a condition that tells them apart may be missing. Identical values can stand only once.

Tests used:
[1] = system: CNV model produced by subretinal injection of Matrigel; conditions: no reference given; cited from earlier work
[2] = system: laser-induced CNV rat model; assay: Fundus fluorescence angiography (FFA) of fluorescein leakage in laser-induced CNV; assay type: in vivo, Brown Norway (BN) rats
Experimental: (§1) Laser photocoagulation-induced CNV was established as previously described. Preoperative preparation included general anesthesia, which was induced with an intraperitoneal injection of 1% pentobarbital sodium (40 mg/kg; Sigma-Aldrich, St. Louis, MO, USA). The rats' pupils were dilated using 0.5% tropicamide and 0.5% phenylephrine (Mydrin-P, Santen Pharmaceutical Co., Osaka, Japan). Surface anesthesia was induced with 0.5% Alcaine (Alcon (China) Ophthalmic Product Co., Beijing, China). Bruch's membrane of the right eye was injured using the following laser parameters: 532 nm wavelength, 360 mW intensity, 0.1 s duration, and 50 μm spot size. Eight to ten laser spots were applied to the major retinal vessels at approximately the same distance to the optic disc. A laser-induced cavitation bubble or slight hemorrhage indicated a rupture in Bruch's membrane. Fundus photography was taken immediately after laser photocoagulation to check for fundus hemorrhage.
(§2) To assess the CM082 distribution and the inhibitory effects of CM082 on CNV development, the 70 rats were randomly divided into 2 groups: 10 rats for evaluating the CNV rat model and to detect the distribution of CM082 and its metabolites and 60 rats for assessing the effects of CM082 on the experimental CNV. CM082 was administered orally at dose of 10 mg/kg/d or 30 mg/kg/d, while the vehicle ([…]) was used as a negative control.
The preoperative preparations were the same as those used to establish the CNV model. Approximately 0.2 ml of 10% sodium fluorescein (Alcon Japan, Tokyo, Japan) was injected intraperitoneally, and the leakage of fluorescein from the laser lesions was monitored dynamically for up to 15 min. The images were obtained using confocal scanning laser ophthalmoscopy (Spectralis, Heidelberg Engineering Inc., Heidelberg, Germany) and analyzed using ImageJ software (National Institutes of Health, Bethesda, MD, USA). The signal intensities (brightness of the CNV lesions) defined the degree of leakage. As a reference, the intensity of the capillaries in the normal regions was defined as 0, whereas the intensity at the major branch of the retinal vein was defined as 1.
To determine whether CM082 inhibited CNV progression, 60 BN rats were divided into 4 groups and randomized by weight, with 10 rats receiving CM082 at 10 mg/kg/d, 10 receiving CM082 at 30 mg/kg/d, 20 receiving vehicle treatment, and 20 undergoing the RPE-choroid-sclera preparation. […] The CNV analysis was performed on day 14 or 21 after laser photocoagulation using FFA, histological examinations, and immunohistochemistry.

[3] = system: oxidative-induced retinopathy; conditions: CM082-treated group compared to control group; no reference given; cited from earlier work
[4] = assay type: in vivo; conditions: oral CM082 10 or 30 mg/kg/d
From the text: […] BN rats were used in this study.

[5] = LC-MS/MS concentrations of CM082 and its metabolites in plasma and ocular tissues after oral CM082; assay type: in vivo, Brown Norway (BN) rats
Experimental: as §2
Liquid chromatography-tandem mass spectrometry (LC-MS/MS) was employed to detect the concentrations of CM082 and its metabolites (X-297 (C22H24FN5O3) and X-471 (C23H28FN5O4)) in the plasma and ocular tissues. An API-4000 triple-quadrupole mass spectrometer (AB Sciex, Framingham, MA, USA) coupled with a Shimadzu liquid chromatography system (Shimadzu Cooperation, Kyoto, Japan) was used for the analysis. CM082, its metabolites, and tolbutamide were dissolved in DMSO to generate 1.0 mg/ml stock solutions stored at 4°C. A total of 200 μl of the tolbutamide stock solution was dissolved in acetonitrile to produce internal-standard working solutions. The plasma and ocular tissue samples were analyzed along with the standard and quality-control samples. The data were analyzed with Analyst 1.6.1 (AB Sciex, Framingham, MA, USA).
Ten BN rats were photocoagulated in the oculus dexter (OD) to build the CNV rat model. Histological examination was performed at day 21, while FFA was conducted at days 14 and 21 to ensure that the CNV model was established successfully and to provide evidence that neovascularization was induced (Figures 1(a), 1(b), and 1(c)). After modeling CNV successfully, to investigate whether CM082 and its metabolites (X-297 and X-471) can reach the retina effectively, the rest of the nine rats were orally treated with CM082 at 10 mg/kg/d for 9 days, starting from day 22. […] Two days after FFA, the rats were sacrificed, and we determined the concentrations of CM082 in the plasma (ng/ml) and the ocular tissues (ng/g) 2 h after CM082 treatment. The concentrations of CM082 in the plasma, the oculus sinister (OS), and the OD were 196.87 ± 24.38 ng/ml, 172.74 ± 20.83 ng/g, and 172.97 ± 18.33 ng/g, respectively. The corresponding concentrations of X-297 were 34.42 ± 3.86 ng/ml, 31.28 ± 4.00 ng/g, and 31.11 ± 3.56 ng/g, while those of X-471 were 32.04 ± 4.57 ng/ml, 16.68 ± 2.18 ng/g, and 15.82 ± 1.85 ng/g.

[6] = system: laser-induced CNV rat model; assay: CNV histology (HE staining); assay type: in vivo, Brown Norway (BN) rats
Experimental: as §1
The rats were euthanized after the FFA examination on day 14 or 21 after laser injury, and a histological examination was performed on 4 rats per group at each time point. The animals were enucleated, and the eyes were fixed in paraformaldehyde for 24 h (the eyelashes were also removed). After fixation, the eyes were embedded in paraffin and serially sectioned at 5 μm. […]

[7] = system: phosphorylated VEGFR-2 (p-VEGFR-2); assay: Immunohistochemistry of phosphorylated VEGFR-2 in CNV eyes; assay type: in vivo, Brown Norway (BN) rats; conditions: CM082 30 mg/kg oral, 14 and 21 days after laser injury, vs vehicle
Experimental: The rats were euthanized after the FFA examination on day 14 or 21 after laser injury, and a histological examination was performed on 4 rats per group at each time point. The animals were enucleated, and the eyes were fixed in paraformaldehyde for 24 h (the eyelashes were also removed). After fixation, the eyes were embedded in paraffin and serially sectioned at 5 μm. Routine hematoxylin-eosin (HE) staining was performed on selected slides, and the serial sections were examined using a light microscope. Immunohistochemical staining was performed on the histological sections from the CM082-treated and vehicle-treated groups 14 and 21 days after laser administration. Routine immunolocalization procedures were used to dewax and rehydrate the slides. The slides were incubated with 3% hydrogen peroxidase for 25 min and washed in phosphate-buffered saline (PBS) for 5 min. The slides were then blocked in goat serum for 15 min. Next, the sections were incubated with a phosphorylated anti-VEGFR-2 antibody (Nanjing Bioworld Biotech Co., Jiangsu, China) overnight at 4°C, followed by incubation with Goat Anti-Rabbit/Rat IgG antibody (Dako Denmark A/S, Denmark) for 30 min. The sections were subsequently incubated with horseradish peroxidase-conjugated streptavidin (Thermo Fisher Scientific China, Shanghai, China) for 30 min and then counterstained with hematoxylin for 2 min. […]

[8] = system: laser-induced CNV rat model; assay: CNV area in RPE-choroid-sclera flat mounts after FITC-dextran perfusion; assay type: in vivo, Brown Norway (BN) rats
Experimental: as §1
To assess the inhibitory effects of CM082 on CNV development, the photocoagulated rats were randomly divided into 2 groups: (1) a CM082-treated group (n = 9) and (2) a vehicle-treated group (n = 9). CM082 (30 mg/kg/d or 5 ml/kg/d) or vehicle (5 ml/kg/d) was administered beginning on the 7th day after laser injury. On the 7th, 14th, or 21st day, 3 rats from each group were anesthetized, and the left ventricle of the heart was perfused with 2 ml of PBS containing 50 mg of fluorescein isothiocyanate- (FITC-) dextran (2 × 10^6 average molecular weight; Sigma-Aldrich). The enucleated eyes were fixed in 4% paraformaldehyde for 1 h. […] The CNV area was measured by ImageJ software (National Institutes of Health, Bethesda, MD, USA).
To further confirm the reverse effect of CM082 at a dose of 30 mg/kg/d on the CNV area, we prepared RPE-choroid-sclera by perfusion with FITC-dextran. […] In addition to comparing the CM082-treated group to the vehicle-treated group, we analyzed the CNV area in the CM082-treated group at different time points.

Cc1[nH]c(/C=C2\C(=O)Nc3ccc(F)cc32)c(C)c1C(=O)N[C@H]1CCN(C(=O)N(C)C)C1 [CM082]
areas of CNV lesions [1]: reduced the areas of CNV lesions
FFA leakage signal intensity ([2]; 10 mg/kg/d group, day 7 after laser injury, before CM082 administration (baseline), scale 0 = capillaries, 1 = retinal vein, vehicle 0.81 ± 0.03): 0.78 ± 0.04
FFA leakage signal intensity ([2]; 30 mg/kg/d group, day 7 after photocoagulation, before dosing (baseline), vehicle 0.81 ± 0.02, p > 0.05): 0.77 ± 0.04
FFA leakage signal intensity ([2]; CM082 10 mg/kg/d oral from day 7, day 21 after laser injury (14 days after dosing), vehicle 0.82 ± 0.03, p < 0.01): 0.66 ± 0.05
FFA fluorescein leakage vs days 14 and 21 ([2]; CM082 10 mg/kg/d oral started day 22 after laser, FFA after 7 days of administration (day 28), p > 0.05): no significant reduction in fluorescein leakage
FFA leakage signal intensity ([2]; CM082 30 mg/kg/d oral from day 7, day 14, vehicle 0.83 ± 0.03, p < 0.001): 0.42 ± 0.03
FFA leakage signal intensity ([2]; CM082 30 mg/kg/d oral from day 7, day 21, vehicle 0.86 ± 0.02, p < 0.001): 0.35 ± 0.05
inhibition rate [3]: 71.1%
tolerability during treatment [4]: no behavioral change, death, or body weight loss
distribution within the ocular tissues ([5]; 2 h after CM082 administration, oral 10 mg/kg/d): highest in the retina-sclera
concentration in the oculus sinister (OS) ([5]; CM082 oral 10 mg/kg/d for 9 days, 2 h after CM082 treatment, n = 9, eye without laser injury): 172.74 ± 20.83 ng/g
concentration in the oculus dexter (OD) ([5]; CM082 oral 10 mg/kg/d for 9 days, 2 h after CM082 treatment, n = 9, photocoagulated eye): 172.97 ± 18.33 ng/g
concentration in the plasma ([5]; CM082 oral 10 mg/kg/d for 9 days, 2 h after CM082 treatment, n = 9, 10 mg/kg/day): 196.87 ± 73.13 ng/mL and 196.87 ± 24.38 ng/mL
total concentration in the eyes ([5]; oral CM082, abstract value): 172.86 ± 57.11 ng/g
CNV lesion size by histology (HE) ([6]; CM082 10 mg/kg/d oral, day 21, vs vehicle): smaller
edema, depigmentation, and CNV areas by histology (HE) ([6]; CM082 30 mg/kg/d oral, 14 and 21 days after laser photocoagulation, vs vehicle): significantly decreased
p-VEGFR-2 immunostaining [7]: reduced the aggregation of p-VEGFR-2 in the RPE and OPL
area of the CNV lesions ([8]; 30 mg/kg/d group, 7 days after laser photocoagulation, before dosing (baseline), vehicle 4.84 ± 0.72): 4.45 ± 0.90 μm^2 × 10^4
area of the CNV lesions ([8]; CM082 30 mg/kg/d oral from day 7, 14 days after laser injury, vehicle 9.60 ± 1.68): 1.48 ± 0.24 μm^2 × 10^4
area of the CNV lesions ([8]; CM082 30 mg/kg/d oral from day 7, 21 days after laser injury, vehicle 19.61): 1.03 ± 0.27 μm^2 × 10^4
